Reference: PMC8753592, “Long-acting capsid inhibitor protects macaques from repeat SHIV challenges” (Nature, 2021)
Several values for one entry are separate records, joined by “and”; a condition that tells them apart may be missing. Equal entries are not always repeated.

Assay: Pilot pharmacokinetic study, single subcutaneous administration
Description: All study protocols were reviewed and approved by the Covance Laboratories Institutional Animal Care and Use Committee (IACUC).
Rhesus plasma samples were stored frozen at −80 °C. For analysis, the samples were thawed, and a 50-µl aliquot of each sample was treated with 200 µl acetonitrile containing a generic internal small-molecule standard. After precipitation of the protein component, a 100-µl aliquot of the supernatant was transferred to a clean 96-well plate and was mixed with 200 µl water. A 20-μl aliquot of the above solution was then injected into a Q-Exactive high-resolution mass spectrometer (Thermo Scientific) with electrospray ionization in positive mode. Quantification was performed with a Thermo Scientific Xcalibur 4.0.27.19 using accurate masses (<5 parts per million mass error; [M + H]^+ of 958.1853 for GC-CA1 and 758.3270 for the internal standard, respectively)[22],[23]. […] Pharmacokinetic parameters, including the area under the plasma concentration–time curve from time 0 to the last quantifiable time point (AUClast), the area under the plasma concentration–time curve from time 0 to infinity (AUCinf), the maximum concentration (Cmax), the time to reach the observed peak plasma concentration (tmax) and the terminal half-life (t1/2), were determined by non-compartmental analysis using Phoenix WinNonlin 6.4 build 8.1.0.3530 software (Pharsight).

[1] = male, Indian origin, rhesus monkey, in vivo, sc, 100 mg/kg
[2] = male, Indian origin, rhesus monkey, in vivo, sc, 300 mg/kg

With `CC(C)(C#Cc1ccc(-c2ccc(Cl)c3c(NS(=O)(=O)C4CC4)nn(CC(F)F)c23)c([C@H](Cc2cc(F)cc(F)c2)NC(=O)Cn2nc(C(F)F)c3c2C(F)(F)[C@@H]2C[C@H]32)n1)S(C)(=O)=O` [GS-CA1] the “Plasma GS-CA1 level” value (100 mg/kg s.c., 0.006 weeks post dose, individual animals, unit not given (Fig. 1b in nM)) was 41.2 and 93.2, the “Plasma GS-CA1 level” value (100 mg/kg s.c., 0.018 weeks post dose, individual animals, unit not given) was 240 and the “Plasma GS-CA1 level” value (100 mg/kg s.c., 0.047 weeks post dose, individual animals, unit not given) was 588. The “Plasma GS-CA1 level” value (100 mg/kg s.c., 0.14 weeks post dose, individual animals, unit not given) was 2054, the “Plasma GS-CA1 level” value (100 mg/kg s.c., 0.29 weeks post dose, individual animals, unit not given) was 2247 and the “Plasma GS-CA1 level” value (100 mg/kg s.c., 0.43 weeks post dose, individual animals, unit not given) was 1217. The “Plasma GS-CA1 level” value (100 mg/kg s.c., 0.57 weeks post dose, individual animals, unit not given) was 649, the “Plasma GS-CA1 level” value (100 mg/kg s.c., 1 week post dose, individual animals, unit not given) was 448 and the “Plasma GS-CA1 level” value (100 mg/kg s.c., 2 weeks post dose, individual animals, unit not given) was 254. For the same compound, the “Plasma GS-CA1 level” value (100 mg/kg s.c., 3 weeks post dose, individual animals, unit not given) was 125, the “Plasma GS-CA1 level” value (100 mg/kg s.c., 4 weeks post dose, individual animals, unit not given) was 115 and the “Plasma GS-CA1 level” value (100 mg/kg s.c., 5 weeks post dose, individual animals, unit not given) was 92.7. The “Plasma GS-CA1 level” value (100 mg/kg s.c., 6 weeks post dose, individual animals, unit not given) was 65.1, the “Plasma GS-CA1 level” value (100 mg/kg s.c., 8 weeks post dose, individual animals, unit not given) was 43.2 and the “Plasma GS-CA1 level” value (100 mg/kg s.c., 10 weeks post dose, individual animals, unit not given) was 23.6. The “Plasma GS-CA1 level” value (100 mg/kg s.c., 12 weeks post dose, individual animals, unit not given) was 11.5, the “Plasma GS-CA1 level” value (100 mg/kg s.c., 14 weeks post dose, individual animals, unit not given) was 15.5 and 6.3 and the “Plasma GS-CA1 level” value (100 mg/kg s.c., 16 weeks post dose, individual animals, unit not given) was 10.4 and 5.1. For the same compound, the “Plasma GS-CA1 level” value (100 mg/kg s.c., 18 weeks post dose, individual animals, unit not given) was 10.7 and 2.4, the “Plasma GS-CA1 level” value (300 mg/kg s.c., 0.006 weeks post dose, individual animals, unit not given (Fig. 1b in nM)) was 74.8 and 53.9 and the “Plasma GS-CA1 level” value (300 mg/kg s.c., 0.018 weeks post dose, individual animals, unit not given) was 137 and 203 and 314. For the same compound, the “Plasma GS-CA1 level” value (300 mg/kg s.c., 0.047 weeks post dose, individual animals, unit not given) was 205 and 325 and 1054, the “Plasma GS-CA1 level” value (300 mg/kg s.c., 0.14 weeks post dose, individual animals, unit not given) was 3062 and 1232 and 2737 and the “Plasma GS-CA1 level” value (300 mg/kg s.c., 0.29 weeks post dose, individual animals, unit not given) was 3422 and 1597 and 1786. The “Plasma GS-CA1 level” value (300 mg/kg s.c., 0.43 weeks post dose, individual animals, unit not given) was 1984 and 1345, the “Plasma GS-CA1 level” value (300 mg/kg s.c., 0.57 weeks post dose, individual animals, unit not given) was 1342 and 1428 and the “Plasma GS-CA1 level” value (300 mg/kg s.c., 1 week post dose, individual animals, unit not given) was 938 and 936. The “Plasma GS-CA1 level” value (300 mg/kg s.c., 2 weeks post dose, individual animals, unit not given) was 1435 and 680 and 798, the “Plasma GS-CA1 level” value (300 mg/kg s.c., 3 weeks post dose, individual animals, unit not given) was 467 and 939 and 816 and the “Plasma GS-CA1 level” value (300 mg/kg s.c., 4 weeks post dose, individual animals, unit not given) was 461 and 659. For the same compound, the “Plasma GS-CA1 level” value (300 mg/kg s.c., 5 weeks post dose, individual animals, unit not given) was 226 and 377 and 512, the “Plasma GS-CA1 level” value (300 mg/kg s.c., 6 weeks post dose, individual animals, unit not given) was 291 and 348 and 602 and the “Plasma GS-CA1 level” value (300 mg/kg s.c., 8 weeks post dose, individual animals, unit not given) was 243 and 396. The “Plasma GS-CA1 level” value (300 mg/kg s.c., 10 weeks post dose, individual animals, unit not given) was 116 and 206, the “Plasma GS-CA1 level” value (300 mg/kg s.c., 12 weeks post dose, individual animals, unit not given) was 56.5 and 98.6 and 116 and the “Plasma GS-CA1 level” value (300 mg/kg s.c., 14 weeks post dose, individual animals, unit not given) was 66.9 and 71.3. The “Plasma GS-CA1 level” value (300 mg/kg s.c., 16 weeks post dose, individual animals, unit not given) was 19.3 and 37.8 and 64.2, the “Plasma GS-CA1 level” value (300 mg/kg s.c., 18 weeks post dose, individual animals, unit not given) was 10 and 26.3 and 22.2 and the concentration at 0.018 weeks (male, Indian origin, rhesus monkey, in vivo, 100 mg/kg, Plasma GS-CA1 level, 100 mg/kg s.c., 0.018 weeks post dose, individual animals, unit inferred) was 202 nM. The concentration at 0.047 weeks (male, Indian origin, rhesus monkey, in vivo, 100 mg/kg, Plasma GS-CA1 level, 100 mg/kg s.c., 0.047 weeks post dose, individual animals, unit inferred) was 436 nM, the concentration at 0.14 weeks (male, Indian origin, rhesus monkey, in vivo, 100 mg/kg, Plasma GS-CA1 level, 100 mg/kg s.c., 0.14 weeks post dose, individual animals, unit inferred) was 1210 nM and the concentration at 0.29 weeks (male, Indian origin, rhesus monkey, in vivo, 100 mg/kg, Plasma GS-CA1 level, 100 mg/kg s.c., 0.29 weeks post dose, individual animals, unit inferred) was 1160 nM. It also gave a concentration at 0.43 weeks (male, Indian origin, rhesus monkey, in vivo, 100 mg/kg, Plasma GS-CA1 level, 100 mg/kg s.c., 0.43 weeks post dose, individual animals, unit inferred) of 910 nM, a concentration at 0.57 weeks (male, Indian origin, rhesus monkey, in vivo, 100 mg/kg, Plasma GS-CA1 level, 100 mg/kg s.c., 0.57 weeks post dose, individual animals, unit inferred) of 487 nM and a concentration at 1 week (male, Indian origin, rhesus monkey, in vivo, 100 mg/kg, Plasma GS-CA1 level, 100 mg/kg s.c., 1 week post dose, individual animals, unit inferred) of 353 nM. The concentration at 2 weeks (male, Indian origin, rhesus monkey, in vivo, 100 mg/kg, Plasma GS-CA1 level, 100 mg/kg s.c., 2 weeks post dose, individual animals, unit inferred) was 163 nM, the concentration at 3 weeks (male, Indian origin, rhesus monkey, in vivo, 100 mg/kg, Plasma GS-CA1 level, 100 mg/kg s.c., 3 weeks post dose, individual animals, unit inferred) was 114 nM and the concentration at 4 weeks (male, Indian origin, rhesus monkey, in vivo, 100 mg/kg, Plasma GS-CA1 level, 100 mg/kg s.c., 4 weeks post dose, individual animals, unit inferred) was 138 nM. For the same compound, the concentration at 5 weeks (male, Indian origin, rhesus monkey, in vivo, 100 mg/kg, Plasma GS-CA1 level, 100 mg/kg s.c., 5 weeks post dose, individual animals, unit inferred) was 93.4 nM, the concentration at 6 weeks (male, Indian origin, rhesus monkey, in vivo, 100 mg/kg, Plasma GS-CA1 level, 100 mg/kg s.c., 6 weeks post dose, individual animals, unit inferred) was 84.9 nM and the concentration at 8 weeks (male, Indian origin, rhesus monkey, in vivo, 100 mg/kg, Plasma GS-CA1 level, 100 mg/kg s.c., 8 weeks post dose, individual animals, unit inferred) was 36.4 nM. For the same compound, the concentration at 10 weeks (male, Indian origin, rhesus monkey, in vivo, 100 mg/kg, Plasma GS-CA1 level, 100 mg/kg s.c., 10 weeks post dose, individual animals, unit inferred) was 40.7 nM, the concentration at 12 weeks (male, Indian origin, rhesus monkey, in vivo, 100 mg/kg, Plasma GS-CA1 level, 100 mg/kg s.c., 12 weeks post dose, individual animals, unit inferred) was 18 nM and the concentration at 0.006 weeks (male, Indian origin, rhesus monkey, in vivo, 300 mg/kg, Plasma GS-CA1 level, 300 mg/kg s.c., 0.006 weeks post dose, individual animals, unit not given (Fig. 1b in nM)) was 68.8 nM. It also gave a concentration at 0.43 weeks (male, Indian origin, rhesus monkey, in vivo, 300 mg/kg, Plasma GS-CA1 level, 300 mg/kg s.c., 0.43 weeks post dose, individual animals, unit inferred) of 2000 nM, a concentration at 0.57 weeks (male, Indian origin, rhesus monkey, in vivo, 300 mg/kg, Plasma GS-CA1 level, 300 mg/kg s.c., 0.57 weeks post dose, individual animals, unit inferred) of 1920 nM and a concentration at 1 week (male, Indian origin, rhesus monkey, in vivo, 300 mg/kg, Plasma GS-CA1 level, 300 mg/kg s.c., 1 week post dose, individual animals, unit inferred) of 1310 nM. For the same compound, the concentration at 4 weeks (male, Indian origin, rhesus monkey, in vivo, 300 mg/kg, Plasma GS-CA1 level, 300 mg/kg s.c., 4 weeks post dose, individual animals, unit inferred) was 338 nM, the concentration at 8 weeks (male, Indian origin, rhesus monkey, in vivo, 300 mg/kg, Plasma GS-CA1 level, 300 mg/kg s.c., 8 weeks post dose, individual animals, unit inferred) was 198 nM and the concentration at 10 weeks (male, Indian origin, rhesus monkey, in vivo, 300 mg/kg, Plasma GS-CA1 level, 300 mg/kg s.c., 10 weeks post dose, individual animals, unit inferred) was 109 nM. The concentration at 14 weeks (male, Indian origin, rhesus monkey, in vivo, 300 mg/kg, Plasma GS-CA1 level, 300 mg/kg s.c., 14 weeks post dose, individual animals, unit inferred) was 43.8 nM, the concentration at 7 day (male, Indian origin, rhesus monkey, in vivo, plasma drug level, 100 and 300 mg/kg single s.c., by day 7) was 400 to 1100 nM and the AUC(0-inf) [1] was 333 µM·h. The “F (based on AUCinf)” value [1] was 92%, the Tmax [1] was 1.5 days and the half-life [1] was 25 days. It also gave an AUC(0-t) (male, Indian origin, rhesus monkey, in vivo, sc, 100 mg/kg, AUC0-24h) of 19.3 µM·h, an AUC(0-t) (male, Indian origin, rhesus monkey, in vivo, sc, 100 mg/kg, AUC0-168h) of 147 µM·h and an AUC(0-t) (male, Indian origin, rhesus monkey, in vivo, sc, 100 mg/kg, AUC0-336h) of 198 µM·h. It also gave an AUC(0-t) (male, Indian origin, rhesus monkey, in vivo, sc, 100 mg/kg, AUC0-1008h) of 279 µM·h, an AUC(0-t) (male, Indian origin, rhesus monkey, in vivo, sc, 100 mg/kg, AUC0-1344h) of 298 µM·h and an AUC(0-t) (male, Indian origin, rhesus monkey, in vivo, sc, 100 mg/kg, AUC0-1680h) of 310 µM·h. The AUC(0-inf) [2] was 1120 ± 126 µM·h, the Cmax [2] was 2710 ± 720 nM and the “F (based on AUCinf)” value [2] was 104 ± 12%. The Tmax [2] was 2 ± 1 days, the half-life [2] was 23.2 days and the AUC(0-t) (male, Indian origin, rhesus monkey, in vivo, sc, 300 mg/kg, AUC0-24h) was 25.2 ± 10.2 µM·h. It also gave an AUC(0-t) (male, Indian origin, rhesus monkey, in vivo, sc, 300 mg/kg, AUC0-336h) of 434 ± 114 µM·h, an AUC(0-t) (male, Indian origin, rhesus monkey, in vivo, sc, 300 mg/kg, AUC0-1008h) of 819 ± 77 µM·h and an AUC(0-t) (male, Indian origin, rhesus monkey, in vivo, sc, 300 mg/kg, AUC0-1344h) of 936 ± 91 µM·h. It also gave an AUC(0-t) (male, Indian origin, rhesus monkey, in vivo, sc, 300 mg/kg, AUC0-1680h) of 1010 ± 109 µM·h.
